Among the test systems are K-562 leukemia; A498 renal; KM12 colon; SF-539 CNS; PC-3 prostate; SNB-19 CNS; SF-268 CNS; SK-OV-3 ovarian; IGROV1 ovarian; HCT-15 colon.
Holding throughout (experiment): DTP human tumour cell line panel, 48 h

Values joined by “and” are separate entries in the source; they are usually repeats but may differ in a detail not shown here. Identical values can stand only once.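 Each compound was tested at five concentrations against cells in 96-well plates for 48 hours. At the GI50, growth is halved. TGI: total growth inhibition.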

Regarding `Nc1ncnc2c1N=C(c1ccc3c(c1)OCO3)CC(c1ccc([N+](=O)[O-])cc1)N2` (stereo not drawn), the GI50 is 22.5 µM in the assay on K-562 leukemia; 25.1 µM with A498 renal; 35.2 µM in the assay on KM12 colon; over 100 µM with SF-539 CNS; 31.1 µM in the assay with PC-3 prostate; 84.9 µM in the assay with SNB-19 CNS. Besides, the GI50 with SF-268 CNS was 42 µM; in the assay on SK-OV-3 ovarian, over 100 µM; with IGROV1 ovarian, 0.0684 µM; in the assay with HCT-15 colon, 9.55 µM. Further, the TGI is over 100 µM in the assay on K-562 leukemia; 90 µM with A498 renal; over 100 µM in the assay on KM12 colon; over 100 µM in the assay on SF-539 CNS; over 100 µM in the assay on PC-3 prostate; over 100 µM with SNB-19 CNS. Further, the concentration for total growth inhibition (TGI) with SF-268 CNS was over 100 µM; with SK-OV-3 ovarian, over 100 µM; with IGROV1 ovarian it was 3.24 µM; in the assay with HCT-15 colon it was over 100 µM.
For `O=C1CCCCCCCCCCC1CN1CCCC1` (stereo not drawn), the TGI is over 100 µM in the assay on K-562 leukemia; over 100 µM in the assay with A498 renal; over 100 µM in the assay with KM12 colon; 65.1 µM in the assay with SF-539 CNS; over 100 µM in the assay with PC-3 prostate; over 100 µM with SNB-19 CNS. The TGI in the assay on SF-268 CNS, in the assay with SK-OV-3 ovarian, in the assay with IGROV1 ovarian and in the assay on HCT-15 colon was over 100 µM throughout.
`Cn1ncnc1[C@H]1c2n[nH]c(=O)c3cc(F)cc(c23)N[C@@H]1c1ccc(F)cc1`: the GI50 is over 100 µM with K-562 leukemia; 28.6 µM in the assay on A498 renal; over 100 µM in the assay on KM12 colon; over 100 µM in the assay with PC-3 prostate; 22.8 µM with SNB-19 CNS; 3.07 µM in the assay with SF-268 CNS. Further, the GI50 in the assay on SK-OV-3 ovarian was over 100 µM; with IGROV1 ovarian, 74.1 µM; with HCT-15 colon it was over 100 µM. Besides, the total growth inhibition concentration (TGI) in the assay on K-562 leukemia, with A498 renal, with KM12 colon, in the assay with SF-539 CNS, with PC-3 prostate and in the assay on SNB-19 CNS was over 100 µM each time. The TGI in the assay on SF-268 CNS, with SK-OV-3 ovarian, with IGROV1 ovarian and in the assay on HCT-15 colon was over 100 µM each time.
For `CC1=C(C(=O)Nc2ccc3n[nH]c(C)c3c2)C(c2ccc(C(F)(F)F)cc2)CC(=O)N1` (stereo not drawn), the GI50 in the assay with K-562 leukemia is over 25 µM; in the assay on A498 renal it was 6.3 µM; in the assay on KM12 colon, 14 µM; in the assay on SF-539 CNS it was 7.12 µM; in the assay on PC-3 prostate, over 25 µM; in the assay on SNB-19 CNS it was over 25 µM. The GI50 in the assay on SF-268 CNS is 8.59 µM; with SK-OV-3 ovarian, 24.2 µM; in the assay on IGROV1 ovarian it was 10.3 µM; in the assay on HCT-15 colon it was over 25 µM. Also, the TGI in the assay on K-562 leukemia, with A498 renal, in the assay on KM12 colon, with SF-539 CNS, in the assay with PC-3 prostate and in the assay with SNB-19 CNS was over 25 µM throughout. Also, the TGI in the assay on SF-268 CNS, in the assay on SK-OV-3 ovarian, with IGROV1 ovarian and in the assay on HCT-15 colon was over 25 µM in each case.
For `C=CCN=C(N/N=C/c1ccc([N+](=O)[O-])o1)NS(=O)(=O)c1cc(C(=O)Nc2ccc(Cl)cc2)c(Cl)cc1SC`, the GI50 in the assay with K-562 leukemia was 2.41 µM; in the assay with A498 renal it was 28.5 µM; with KM12 colon, 6.89 µM; in the assay on SF-539 CNS, 5.92 µM; in the assay with PC-3 prostate, 2.13 µM; in the assay on SNB-19 CNS, over 100 µM. Besides, the GI50 with SF-268 CNS was 2.85 µM; in the assay with SK-OV-3 ovarian it was over 100 µM; with IGROV1 ovarian, over 69.9 µM; with HCT-15 colon it was 2.97 µM. For the same compound, the concentration for total growth inhibition (TGI) was over 21.2 µM with K-562 leukemia; over 100 µM in the assay on A498 renal; over 100 µM in the assay on KM12 colon; over 100 µM in the assay on SF-539 CNS; over 100 µM with PC-3 prostate; over 100 µM in the assay on SNB-19 CNS. Besides, the TGI is over 100 µM in the assay on SF-268 CNS, over 100 µM in the assay with SK-OV-3 ovarian, over 100 µM in the assay on IGROV1 ovarian and 13.5 µM in the assay on HCT-15 colon.
As for `O=C(Nc1ccc(Br)cc1F)c1cc(I)ccc1O`, the GI50 is 2.52 µM in the assay on K-562 leukemia; 1.32 µM in the assay on A498 renal; 2.98 µM in the assay on KM12 colon; 2.8 µM with SF-539 CNS; 2.31 µM with PC-3 prostate; 3.08 µM with SNB-19 CNS. Further, the GI50 is 2.4 µM with SF-268 CNS, 2.13 µM with SK-OV-3 ovarian, 1.95 µM in the assay on IGROV1 ovarian and 2.94 µM in the assay with HCT-15 colon. For the same compound, the TGI in the assay on K-562 leukemia is over 100 µM; in the assay with A498 renal, 3.46 µM; with KM12 colon it was 9.14 µM; in the assay on SF-539 CNS, 12.1 µM; in the assay with PC-3 prostate it was 7.86 µM; in the assay on SNB-19 CNS, over 100 µM. The TGI in the assay on SF-268 CNS is 29.6 µM; in the assay on SK-OV-3 ovarian it was 7.95 µM; with IGROV1 ovarian, over 100 µM; in the assay with HCT-15 colon, 12.7 µM.
Regarding `C[C@H]1CC[C@@]2(NC1)O[C@H]1C[C@H]3[C@@H]4CC[C@H]5C[C@@H](O)CC[C@]5(C)[C@H]4CC[C@]3(C)[C@H]1[C@@H]2C`, the GI50 in the assay with K-562 leukemia was 6.87 µM; with A498 renal, 13.8 µM; in the assay on KM12 colon it was 19 µM; in the assay on SF-539 CNS, 13.8 µM; with PC-3 prostate, 12.5 µM; in the assay with SF-268 CNS, 14 µM. Also, the GI50 in the assay with SK-OV-3 ovarian is 22.7 µM; in the assay with IGROV1 ovarian it was 12.3 µM; in the assay with HCT-15 colon, 20.9 µM. Also, the TGI with K-562 leukemia is 23 µM and > 100 µM; in the assay on A498 renal it was 35.2 µM and > 100 µM; with KM12 colon it was 50 µM and > 100 µM; with SF-539 CNS, 32.2 µM and > 100 µM; in the assay on PC-3 prostate, 42 µM and > 100 µM; with SNB-19 CNS, 50 µM and > 100 µM. Also, the TGI in the assay on SF-268 CNS was 50 µM and > 100 µM; in the assay on SK-OV-3 ovarian, 50 µM and > 100 µM; with IGROV1 ovarian, 24.5 µM and > 100 µM; in the assay with HCT-15 colon, 50 µM and > 100 µM.
For the compound `C[C@@H]1[C@H](C)N1CC(O)Cn1ccnc1[N+](=O)[O-]` (stereo partly drawn), the total growth inhibition concentration (TGI) in the assay with K-562 leukemia, in the assay with A498 renal, in the assay with KM12 colon, in the assay on SF-539 CNS, in the assay on PC-3 prostate and with SNB-19 CNS was over 100 µM each time. Further, the TGI in the assay on SF-268 CNS, in the assay on SK-OV-3 ovarian, in the assay on IGROV1 ovarian and with HCT-15 colon was over 100 µM in each case.
As for `O=C1OCC2=C1C(c1cccc(Cl)c1)c1cc3c(cc1N2CCO)OCCO3` (stereo not drawn), the GI50 in the assay on K-562 leukemia is 0.0481 µM; in the assay on A498 renal it was 0.0265 µM; in the assay on KM12 colon, 0.0431 µM; with SF-539 CNS, 0.0467 µM; with PC-3 prostate it was 0.0502 µM; in the assay on SNB-19 CNS, 0.0747 µM. The GI50 with SF-268 CNS is 0.0598 µM; in the assay with SK-OV-3 ovarian, 0.0548 µM; in the assay on IGROV1 ovarian, 0.0792 µM; with HCT-15 colon it was 0.073 µM. The TGI with K-562 leukemia was over 45.7 µM; in the assay on A498 renal, 0.58 µM; in the assay with KM12 colon, 1.72 µM; in the assay with SF-539 CNS, 0.975 µM; in the assay with PC-3 prostate, 13.1 µM; in the assay on SNB-19 CNS, over 100 µM. The TGI is 13.2 µM in the assay on SF-268 CNS, 1.96 µM in the assay on SK-OV-3 ovarian, over 47.4 µM with IGROV1 ovarian and over 100 µM with HCT-15 colon.
Take `NC(=O)N/N=C1/CCC(O)CC1CC(=O)O` (stereo not drawn): the TGI with K-562 leukemia, in the assay with A498 renal, in the assay on KM12 colon, with SF-539 CNS, with PC-3 prostate and in the assay on SNB-19 CNS was over 100 µM throughout. The TGI in the assay on SF-268 CNS, with SK-OV-3 ovarian, with IGROV1 ovarian and with HCT-15 colon was over 100 µM throughout.
In the case of `CC(=O)N1CC(C)(C)c2c(C)c(O)c(C)c(C)c21`, the TGI in the assay with K-562 leukemia, in the assay on A498 renal, in the assay on KM12 colon, with SF-539 CNS, in the assay with PC-3 prostate and with SNB-19 CNS was over 100 µM in each case. In addition, the TGI in the assay on SF-268 CNS, with SK-OV-3 ovarian, in the assay with IGROV1 ovarian and in the assay with HCT-15 colon was over 100 µM each time.
For the compound `COC1CC(O[C@H]2CC[C@@]3(C)[C@H](CC[C@@H]4[C@@H]3CC[C@]3(C)[C@@H](C5=CC(=O)OC5)[C@@H](OC(C)=O)C[C@]43O)C2)OC(C)C1O` (stereo partly drawn), the GI50 in the assay on K-562 leukemia, in the assay on A498 renal, with KM12 colon, with SF-539 CNS, in the assay with PC-3 prostate and in the assay with SNB-19 CNS was under 0.01 µM each time. In addition, the GI50 in the assay on SF-268 CNS, in the assay with SK-OV-3 ovarian, with IGROV1 ovarian and with HCT-15 colon was under 0.01 µM in each case. In addition, the total growth inhibition concentration (TGI) is under 0.0135 µM in the assay on K-562 leukemia; under 0.0137 µM in the assay with A498 renal; under 0.0106 µM in the assay with KM12 colon; under 0.01 µM in the assay on SF-539 CNS; under 0.01 µM in the assay on PC-3 prostate; under 0.01 µM in the assay with SNB-19 CNS. Further, the TGI with SF-268 CNS, with SK-OV-3 ovarian, in the assay with IGROV1 ovarian and with HCT-15 colon was under 0.01 µM throughout.

Broadly, the GI50 is the concentration giving 50% growth inhibition. By TGI is commonly meant the concentration giving total growth inhibition.

The values are drawn from PubChem BioAssay (NCI).
